How the values were obtained:
recombinant human PGHS-2 = biological target: T1, recombinant human PGHS-2 (Homo sapiens, UniProt P35354); assay: Recombinant human PGHS-2 enzyme assay (PGE2 by EIA); assay type: biochemical; settings: for inhibition at 0.1 µM: 100 nM compound, microsomes, 60 min preincubation, 10 μM arachidonic acid, read-out: RHuPGHS-2 (% I @ 100 nM)
T1 construct: made in house; host or cells: baculovirus/Sf9 insect cells (microsomes)
T1 sequence (P35354 18-604): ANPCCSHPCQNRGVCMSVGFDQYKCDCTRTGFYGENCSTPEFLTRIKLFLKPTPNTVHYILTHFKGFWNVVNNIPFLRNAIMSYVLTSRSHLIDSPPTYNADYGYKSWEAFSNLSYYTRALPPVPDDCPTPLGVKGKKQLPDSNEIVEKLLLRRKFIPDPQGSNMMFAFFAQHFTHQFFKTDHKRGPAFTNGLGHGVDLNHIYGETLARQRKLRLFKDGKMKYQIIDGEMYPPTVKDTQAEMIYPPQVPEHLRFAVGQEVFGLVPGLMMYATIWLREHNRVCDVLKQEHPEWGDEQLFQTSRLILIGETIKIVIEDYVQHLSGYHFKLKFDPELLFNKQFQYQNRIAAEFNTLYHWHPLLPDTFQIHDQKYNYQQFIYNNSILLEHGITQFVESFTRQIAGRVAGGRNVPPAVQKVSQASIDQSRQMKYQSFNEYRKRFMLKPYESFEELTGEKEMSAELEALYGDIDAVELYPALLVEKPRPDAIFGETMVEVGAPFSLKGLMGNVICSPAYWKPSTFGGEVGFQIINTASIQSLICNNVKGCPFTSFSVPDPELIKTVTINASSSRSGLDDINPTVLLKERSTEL
Method: (§1) A compound of the invention dissolved in DMSO (3.3% v/v) was preincubated with microsomes from recombinant human PGHS-1 or PGHS-2 expressed in the baculovirus/Sf9 cell system (Gierse, J. K., Hauser, S. D., Greely, D. P., Koboldt, C., Rangwala, S., H., Isakson, P. C., and Seibert, K. "Expression and selective inhibition of the constitutive and inducible forms of cyclooxygenase", Biochem J. 305:479 (1995)), together with the cofactors phenol (2 mM) and hematin (1 μM) for 60 minutes prior to the addition of 10 μM arachidonic acid. The reaction was allowed to run for 2.5 minutes at room temperature prior to quenching with HCl and neutralization with NaOH. PGE2 production in the presence and absence of the drug was determined by EIA analysis.
(§2) EIA reagents for prostaglandin determination were purchased from Perseptive Diagnostics, Cambridge, Mass. PGE2 levels in lavage fluids were determined after the samples were dried under nitrogen and reconstituted with assay buffer. PGE2 levels in enzyme assays or cell culture media were measured against standards prepared in the same milieu. The immunoassays were conducted as recommended by the manufacturer. The EIA was conducted in 96 well microtiter plates (Nunc Roskilde, Denmark) and optical density measured using a microplate reader (Vmax, Molecular Devices Corp., Menlo Park, Calif.).

recombinant human PGHS-1 = biological target: T2, recombinant human PGHS-1 (Homo sapiens, UniProt P23219); assay: Recombinant human PGHS-1 enzyme assay (PGE2 by EIA); assay type: biochemical; settings: 100 μM compound; microsomes, 60 min preincubation, 10 μM arachidonic acid; read-out: RHuPGHS-1 (% I @ 100μM)
T2 construct: made in house; host or cells: baculovirus/Sf9 insect cells (microsomes)
T2 sequence (P23219 24-599): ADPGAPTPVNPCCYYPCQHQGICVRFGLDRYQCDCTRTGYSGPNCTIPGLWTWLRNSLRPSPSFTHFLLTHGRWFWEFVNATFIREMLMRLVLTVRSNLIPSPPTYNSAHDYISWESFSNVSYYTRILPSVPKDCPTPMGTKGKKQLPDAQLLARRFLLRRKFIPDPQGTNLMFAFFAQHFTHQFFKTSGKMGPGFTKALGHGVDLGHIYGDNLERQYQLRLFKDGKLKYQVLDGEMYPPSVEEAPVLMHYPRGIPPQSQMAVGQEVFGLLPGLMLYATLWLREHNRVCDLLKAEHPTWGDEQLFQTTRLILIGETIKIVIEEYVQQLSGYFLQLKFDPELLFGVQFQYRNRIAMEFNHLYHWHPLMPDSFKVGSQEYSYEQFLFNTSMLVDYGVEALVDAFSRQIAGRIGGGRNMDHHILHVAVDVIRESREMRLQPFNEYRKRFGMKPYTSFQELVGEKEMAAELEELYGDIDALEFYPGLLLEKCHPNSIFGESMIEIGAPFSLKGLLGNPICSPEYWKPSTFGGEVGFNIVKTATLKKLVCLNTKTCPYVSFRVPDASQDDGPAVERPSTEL
Method: as §1, §2

[1] = tested on: prostaglandin production in the pleural cavity; assay: Carrageenan induced pleurisy test (CIP); assay type: in vivo, Sprague-Dawley rats; settings: rats, 10 mg/kg oral, 30 minutes prior to intrapleural carrageenan; lavage four hours after
Method: as §2
Inhibition of carrageenan induced pleurisy in rats was determined essentially as described by F. B. De Brito, (Pleurisy and Pouch Models of Acute Inflammation in Pharmalogical Methods in the Control of Inflammation, Eds, J. Y. Chang and A. J. Lewis, Alan Liss Inc., New York: 173-194, 1989) and Vinegar et al. ("Quantitative studies of the pathway to acute carrageenan inflammation", Fed. Proc., 35:2447-2456 (1976)). Briefly, eight Sprague-Dawley rats were orally dosed with 10 mg/kg of a compound of the invention 30 minutes prior to intrapleural injection of 2% lambda carrageenan (Sigma Chemical Co., St. Louis Mo.). Four hours after carrageenan injection, the animals were euthanized and their pleural cavities lavaged with ice cold saline. The lavage fluid was then added to two volumes of ice cold methanol (final methanol concentration 66%) to lyse cells and precipitate protein. Prostaglandin levels in the methanol/lavage fluid were then determined by EIA.

Row | SMILES | inhibition at 0.1 µM (recombinant human PGHS-2) | inhibition at 100 µM (recombinant human PGHS-1) | inhibitory potency against recombinant human PGHS-2 (in words) (recombinant human PGHS-2) | inhibition of prostaglandin production in the pleural cavity [1]
1 | CS(=O)(=O)Nc1ccc([N+](=O)[O-])cc1Oc1ccc2ccccc2c1 [Example 1, N(4-Nitro-2-(naphth-2'-yloxy)phenyl)methanesulfonamide] | 65% | 47% | – | –
2 | CS(=O)(=O)Nc1ccc([N+](=O)[O-])cc1Oc1ccc2cc(F)ccc2c1 [Example 2, N-(4-Nitro-2-(6'-fluoro-naphth-2'-yloxy)phenyl)methanesulfonamide] | 56% | 26% | – | 20%
3 | CS(=O)(=O)Nc1ccc([N+](=O)[O-])cc1Oc1ccc2c(c1)OCO2 [Example 5, N-(4-Nitro-2-(1,3-benzodioxol-6-yloxy)phenyl)methanesulfonamide] | 77% | 89% | most potent | 36%

Continued, in another order:

Row | inhibition at 0.1 µM (recombinant human PGHS-2) | inhibition at 100 µM (recombinant human PGHS-1) | inhibitory potency against recombinant human PGHS-2 (in words) (recombinant human PGHS-2) | SMILES | inhibition of prostaglandin production in the pleural cavity [1]
4 | 59% | 89% | – | CS(=O)(=O)Nc1ccc([N+](=O)[O-])cc1Oc1ccc2sccc2c1 [Example 3, N-(4-Nitro-2-(benzothiophen-5'-yloxy)phenyl)methanesulfonamide] | 48%
5 | 43% | 31% | – | CS(=O)(=O)Nc1ccc([N+](=O)[O-])cc1Oc1ccc2ncsc2c1 [Example 4] | 66%
